Experimental findings from US9187490B2, “Dimeric IAP inhibitors” (TetraLogic Pharmaceuticals Corporation, priority 2005, dated 2015) are described below.

Like-named read-outs stand apart in the source and are kept apart here. Some results are limits rather than exact numbers.

By Kd is commonly meant the free concentration of one partner at which half of the binding sites on the other are occupied at equilibrium, for simple one-to-one binding. By half-life is commonly meant the time needed for the level to fall by half in the phase considered.

One series has as its target T1, XIAP-BIR3 (Homo sapiens, UniProt P98170).
T1 construct: 40 nM of XIAP-BIR3 for 15 min at RT
Nature of the series: XIAP BIR-3 fluorescence polarization binding assay. The conditions noted are these: read-out: KD Range. As to the method:
Following incubation, the polarization values (mP) were measured on a Victor^2V using a 485 nm excitation filter and a 520 nm emission filter. IC50 values were determined from the plot using nonlinear least-squares analysis using GraphPad Prism.
For orientation: Polarisation of emitted light reports the rotation of a fluorescent probe.

The test system of the next series is MDA MB-231 cells. Nature of the series: Apoptosis induction, Annexin V/Propidium Iodide staining. Type of series: cell-based. As to the method: To show the ability of Smac mimetics to induce apoptosis, Annexin V-fluorescein isothiocyanate staining was performed. […] Cells were then pelleted and resuspended in assay buffer (supplied by manufacturer). Annexin V and propidium iodide were added to the cell preparations and incubated for 1 hour in the dark at room temperature. Following the incubation additional buffer (200 μl) was then added to each tube, and the samples were analyzed immediately by flow cytometry. In the presence of Smac mimetics apoptosis was strongly promoted, as assessed by annexin/PI staining and analyzed by flow cytometry. The amplification in the number of apoptotic cells (Annexin V positive/propidium iodide negative—lower right quadrant) by IAP antagonists as compared to control was dose dependent and due to the induction of apoptosis and not via increasing the proportion of necrotic cells.

Series [1] is described as follows: Half life after single intravenous dose in rat. The conditions noted are these: in vivo, single IV dose 1 mg/kg, FIG. 2, read-out: terminal elimination half life (converted). The method, then:
The IV dose for each Smac mimetic was 1 mg/kg.

In a further series the test system is OVCAR-3 cells. As to the kind of experiment: Cytotoxicity synergy matrix (MacSynergy II) with paclitaxel, cisplatin, carboplatin. Type of series: cell-based. The method, then:
To further assess potential drug-drug interactions a matrix of the permutations of two-fold serial dilutions of each drug and a Snac mimetic were tested as well as the activity of each compound alone using a program called MacSynergy II (Prichard, M. N., K. R. Aseltine, and C. Shipman, Jr. 1993. MacSynergy II. User's manual. Univ. of Michigan, Ann Arbor). The synergy with paclitaxel and the Smac peptidomimetic Entry 122 in OVCAR3 cells was tested. The highest amount of synergy detected is 10-20% which indicates greater cell death than would be expected by adding together the cytotoxicity of either compound alone.
Paclitaxel the dosage ranged from about 0.0 to about 500.0 nM. For Entry 122, the dosage range was about 125.0 to about 8000.0 nM. The total synergistic volume was about 170.
The synergy with cisplatin and the Smac peptidomimetics in OVCAR-3 cells was tested The highest amount of synergy is 40-50% more cell death than would be expected by adding together the cytotoxicity of each compound alone. […] For cisplatin the dosage range was about 0.0 to about 166,500.0 nM. For Entry 122, the dosage range was about 500.0 to about 32,000.0 nM. The total synergistic volume was about 434. Similar tests were performed with the combination of carboplatin and Smac mimetics. Synergy between a Smac peptidomimetic, Entry 122, and carboplatin.

Where [2] appears, read: 5 nM AbuRPF-K(5-Fam)-NH2, 40 nM XIAP-BIR3, 15 min RT, pH 7.5.

T1 sequence (P98170 241-356 limits assumed): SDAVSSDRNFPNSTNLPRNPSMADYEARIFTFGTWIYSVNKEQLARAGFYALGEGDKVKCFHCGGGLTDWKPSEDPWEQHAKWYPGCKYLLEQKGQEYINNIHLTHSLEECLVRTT

As to `CN[C@@H](C)C(=O)N[C@H](C(=O)N1CCC[C@H]1Cc1c(-c2[nH]c3cc(F)ccc3c2C[C@@H]2CCCN2C(=O)[C@@H](NC(=O)[C@H](C)NC)C(C)(C)C)[nH]c2cc(F)ccc12)C(C)(C)C` [Entry 84], at XIAP-BIR3 (Example 4 series), the Kd was less than 100 nM.
As for `CN[C@@H](C)C(=O)N[C@H](C(=O)N1CCC[C@H]1Cc1c(-c2[nH]c3cc(F)ccc3c2C[C@@H]2CCCN2C(=O)[C@@H](NC(=O)[C@H](C)NC)C2CCCCC2)[nH]c2cc(F)ccc12)C1CCCCC1` [Entry 85], the equilibrium dissociation constant (Kd) on XIAP-BIR3 (Example 4 series) is less than 100 nM.
On the same count and under the same terms, as for `CNC(C)C(=O)NC(C(=O)N1CC(O)CC1Cc1c(-c2[nH]c3cc(F)ccc3c2CC2CC(O)CN2C(=O)C(NC(=O)C(C)NC)C(C)O)[nH]c2cc(F)ccc12)C(C)O` (stereo not drawn) [Entry 86], the figure is less than 100 nM.
As for `CN[C@@H](C)C(=O)N[C@H](C(=O)N1C[C@@H](O)C[C@H]1Cc1c(-c2[nH]c3cc(F)ccc3c2C[C@@H]2C[C@H](O)CN2C(=O)[C@@H](NC(=O)[C@H](C)NC)C(C)C)[nH]c2cc(F)ccc12)C(C)C` [Entry 87], at XIAP-BIR3 (Example 4 series), the Kd was less than 100 nM.
With `CNC(C)C(=O)NC(C(=O)N1CC(O)CC1Cc1c(-c2[nH]c3cc(F)ccc3c2CC2CC(O)CN2C(=O)C(NC(=O)C(C)NC)C(C)OC)[nH]c2cc(F)ccc12)C(C)OC` (stereo not drawn) [Entry 88], the dissociation constant (Kd) at XIAP-BIR3 (Example 4 series) was less than 100 nM.
Consider `CNC(C)C(=O)NC(C(=O)N1CC(O)CC1Cc1c(-c2[nH]c3cc(F)ccc3c2CC2CC(O)CN2C(=O)C(NC(=O)C(C)NC)C(C)OC(C)(C)C)[nH]c2cc(F)ccc12)C(C)OC(C)(C)C` (stereo not drawn) [Entry 89], for which, on XIAP-BIR3 (Example 4 series), the Kd was 100 to 1000 nM.
Regarding `CNC(C)C(=O)NC(C(=O)N1CC(O)CC1Cc1c(-c2[nH]c3cc(F)ccc3c2CC2CC(O)CN2C(=O)C(NC(=O)C(C)NC)C(C)O)[nH]c2cc(F)ccc12)C(C)O` (stereo not drawn) [Entry 90], at XIAP-BIR3 (Example 4 series), the Kd was less than 100 nM.
Still for that read-out and setting: the result for `CN[C@H](C)C(=O)N[C@H](C(=O)N1CCC[C@H]1Cc1c(-c2[nH]c3cc(F)ccc3c2C[C@@H]2CCCN2C(=O)[C@@H](NC(=O)[C@@H](C)NC)C(C)C)[nH]c2cc(F)ccc12)C(C)C` [Entry 91] reads 100 to 1000 nM.
Take `CNC(C)C(=O)NC1CC=CCC(NC(=O)C(C)NC)C(=O)N2CCCC2Cc2c3n(c4cc(F)ccc24)CCn2c-3c(c3ccc(F)cc32)CC2CCCN2C1=O` (stereo not drawn) [Entry 95]: the Kd at XIAP-BIR3 (setting [2]) was less than 100 nM.
For the molecule `CN[C@@H](C)C(=O)NC1CCCC[C@H](NC(=O)[C@H](C)NC)C(=O)N2CCC[C@H]2Cc2c3n(c4ccc(F)cc24)CCn2c-3c(c3cc(F)ccc32)C[C@@H]2CCCN2C1=O` (stereo partly drawn) [Entry 97], the Kd on XIAP-BIR3 (setting [2]) was less than 100 nM.
Regarding `CN[C@@H](C)C(=O)N[C@H](C(=O)N1CCC[C@H]1Cc1c(-c2[nH]c3ccccc3c2C[C@@H]2CCCN2C(=O)[C@@H](NC(=O)[C@H](C)NC)[C@@H](C)O)[nH]c2ccccc12)[C@@H](C)O` [Entry 105], the Kd at XIAP-BIR3 (Example 7 series) was less than 100 nM.
Take `CN[C@@H](C)C(=O)N[C@H](C(=O)N1C[C@@H](O)C[C@H]1Cc1c(-c2[nH]c3cc(F)ccc3c2C[C@@H]2C[C@H](O)CN2C(=O)[C@@H](NC(=O)[C@H](C)NC)[C@H](C)OC(C)(C)C)[nH]c2cc(F)ccc12)[C@H](C)OC(C)(C)C` [Entry 114]: the Kd on XIAP-BIR3 (Example 7 series) was less than 100 nM.
As to `CN[C@@H](C)C(=O)N[C@H](C(=O)N1CCC[C@H]1Cc1cn(CC#CC#CCn2cc(C[C@@H]3CCCN3C(=O)[C@@H](NC(=O)[C@H](C)NC)C(C)(C)C)c3ccccc32)c2ccccc12)C(C)(C)C` [Entry 119], the Kd at XIAP-BIR3 (setting [2]) is less than 100 nM.
On to `CN[C@@H](C)C(=O)N[C@H](C(=O)N1CCC[C@H]1Cc1cn(CC#CC#CCn2cc(C[C@@H]3CCCN3C(=O)[C@@H](NC(=O)[C@H](C)NC)C3CCCCC3)c3ccccc32)c2ccccc12)C1CCCCC1` [Entry 120], for which the Kd on XIAP-BIR3 (setting [2]) is less than 100 nM.
As to `CN[C@@H](C)C(=O)N[C@H](C(=O)N1CCC[C@H]1Cc1cn(CC#CC#CCn2cc(C[C@@H]3CCCN3C(=O)[C@@H](NC(=O)[C@H](C)NC)C(C)C)c3ccccc32)c2ccccc12)C(C)C` [Entry 121], the dissociation constant Kd on XIAP-BIR3 (setting [2]) is less than 100 nM. Further, in the series with MDA MB-231 cells (MDA MB-231, after 4 hours), the “apoptosis induced, agent alone” value is on record as “failed to induce significant apoptosis” and the “increase in apoptotic activity, combination of TRAIL with compound” value came to 4 fold. Further, in the series with MDA MB-231 cells (MDA MB-231, without TRAIL), the “apoptosis, compound alone” value is recorded as “approximately 10 % of cell total”.
As for `CN[C@@H](C)C(=O)N[C@H](C(=O)N1CCC[C@H]1Cc1cn(CCOCCn2cc(C[C@@H]3CCCN3C(=O)[C@@H](NC(=O)[C@H](C)NC)C3CCCCC3)c3ccccc32)c2ccccc12)C1CCCCC1` [Entry 122], the half-life in series [1] is no more than 6 h. For the same molecule, on XIAP-BIR3 (Example 9 series), the Kd was less than 100 nM. Further, the total synergistic volume result is “about 170” in the series on OVCAR-3 cells (OVCAR3, paclitaxel 0.0-500.0 nM, compound 125.0-8000.0 nM) and “about 434” in the series with OVCAR-3 cells (OVCAR-3, cisplatin 0.0-166,500.0 nM, compound 500.0-32,000.0 nM). Also, the “highest amount of synergy detected” value in the series with OVCAR-3 cells (OVCAR3, with paclitaxel) was 10-20%. For the same molecule, in the series on OVCAR-3 cells (OVCAR-3, with carboplatin), the “synergy with carboplatin” value was “Synergy”. Also, the “highest amount of synergy, more cell death than expected” value with OVCAR-3 cells (OVCAR-3, with cisplatin) is given as 40-50%.
With `CN[C@@H](C)C(=O)N[C@H](C(=O)N1CCC[C@H]1Cc1cn(CCOCCn2cc(C[C@@H]3CCCN3C(=O)[C@@H](NC(=O)[C@H](C)NC)C3CCCCC3)c3ccc(F)cc32)c2cc(F)ccc12)C1CCCCC1` [Entry 123], the half-life in series [1] was no more than 6 h. In addition, the Kd on XIAP-BIR3 (Example 9 series) is less than 100 nM.
Regarding `CN[C@@H](C)C(=O)N[C@H](C(=O)N1CCC[C@H]1Cc1cn(CCOCCn2cc(C[C@@H]3CCCN3C(=O)[C@@H](NC(=O)[C@H](C)NC)[C@@H](C)O)c3ccc(F)cc32)c2cc(F)ccc12)[C@@H](C)O` [Entry 124], the Kd at XIAP-BIR3 (Example 9 series) was less than 100 nM.
Consider `CC[C@H](NC)C(=O)N[C@H](C(=O)N1CCC[C@H]1Cc1cn(CCOCCn2cc(C[C@@H]3CCCN3C(=O)[C@@H](NC(=O)[C@H](CC)NC)[C@@H](C)O)c3cc(F)ccc32)c2ccc(F)cc12)[C@@H](C)O` [Entry 125], for which, at XIAP-BIR3 (Example 9 series), the Kd was in the range of 100 to 1000 nM.
On to `CN[C@@H](C)C(=O)N[C@H](C(=O)N1CCC[C@H]1Cc1cn(CCOCCn2cc(C[C@@H]3CCCN3C(=O)[C@@H](NC(=O)[C@H](C)NC)C3CCCCC3)c3cc(F)ccc32)c2ccc(F)cc12)C1CCCCC1` [Entry 126], for which, at XIAP-BIR3 (Example 9 series), the Kd was less than 100 nM.
Same read-out and setting: the result for `CN[C@@H](C)C(=O)N[C@H](C(=O)N1CCC[C@H]1Cc1c(C)n(CCOCCn2c(C)c(C[C@@H]3CCCN3C(=O)[C@@H](NC(=O)[C@H](C)NC)C3CCCCC3)c3cc(F)ccc32)c2ccc(F)cc12)C1CCCCC1` [Entry 127] reads less than 100 nM; that for `CN[C@@H](C)C(=O)N[C@H](C(=O)N1CCC[C@H]1Cc1cn(CCOCCn2cc(C[C@@H]3CCCN3C(=O)[C@@H](NC(=O)[C@H](C)N)C3CCCCC3)c3ccccc32)c2ccccc12)C1CCCCC1` [Entry 143], less than 100 nM.

B1: TRAIL: tumor necrosis factor-related apoptosis-inducing ligand (TRAIL) (protein, UniProt P50591 1-281, looked up)
Tumor necrosis factor ligand …: MAMMEVQGGPSLGQTCVLIVIFTVLLQSLCVAVTYVYFTNELKQMQDKYSKSGIACFLKEDDSYWDPNDEESMNSPCWQVKWQLRQLVRKMILRTSEETISTVQEKQQNISPLVRERGPQRVAAHITGTRGRSNTLSSPNSKNEKALGRKINSWESSRSGHSFLSNLHLRNGELVIHEKGFYYIYSQTYFRFQEEIKENTKNDKQMVQYIYKYTSYPDPILLMKSARNSCWSKDAEYGLYSIYQGGIFELKENDRIFVSVTNEHLIDMDHEASFFGAFLVG
Turning to B1, in the series with MDA MB-231 cells (MDA MB-231, after 4 hours), the “apoptosis induced, agent alone” value is on record as “little, if any”.
